# According to patent US6414014B1 (Bristol-Myers Squibb Company, priority 1992, dated 2002):
# What was measured:
# [1] = system: drug-refractory ovarian cancer; details: in vivo; cited from earlier work
# [2] = Hypersensitivity reactions (HSR) in the randomized taxol study; type: in vivo, patients
# Procedure: Patients with platinum pretreated recurrent ovarian cancer were randomized to a 135 or 175 mg/m^2 dose arm, administered as a 3-hour or 24-hour IV infusion, which was repeated every three weeks. Responses were evaluated every two cycles.
# A nurse remained with each patient for the first hour of each infusion. Temperature, pulse, blood pressure, and respiration were taken preinfusion, every 15 minutes for the first hour, every thirty minutes for the next 2 hours, hourly for the next 4 hours, and every other hour until the end of the infusion (for patients receiving the 24-hour infusion). Other observations were also documents, such as rash/redness of the skin, hives, vomiting, nausea, and any other symptoms including neuropathy and skin rashes.
# [3] = system: patients suffering from ovarian carcinoma; test: Multi-center, randomized comparative study of taxol in platinum pretreated ovarian carcinoma: objective response; type: in vivo
# Excerpt: The high degree of success, greater than 10% of objective response, to treatment by patients suffering from drug refractory ovarian carcinoma is truly astonishing, since responses to drug refractory ovarian carcinoma are extremely uncommon. While experimental data is provided herein for the successful treatment of ovarian carcinoma with taxol using the present treatment protocol, it is to be understood that the treatment protocol can be used for the treatment of other forms of cancer with taxol, such as melanoma, renal cell carcinoma, and other cancers which are treatable with taxol.
# Responses were evaluated every two cycles.
# Patients with ovarian carcinoma included in the study had been treated with and were unresponsive to a minimum of one but no more than two platinum-containing chemotherapy regimens, and were required to have shown progression during or relapse after their last regimen of chemotherapy. Patients were treated every 21 days if allowed by toxicity.
# While an emulsion of taxol in polyethoxylated caster oil in dehydrated alcohol is utilized as a vehicle in a preferred embodiment, it is contemplated that other pharmaceutically acceptable vehicles for taxol may be used.
# This procedure enables the accurate accessment of the patient receiving the taxol.
# Patients ranged between 18 and 75 years in age with an Eastern Cooperative Oncology Group, ECOG, performance status of 0, 1, or 2, and had to have recovered from all toxicities of previous treatment. Further, no prior chemotherapy or radiotherapy were allowed within four weeks prior to entry into the study (patients were also not entered into the study if there had been less than six weeks since prior mitomycin, nitrosureas, or high-dose carboplatin therapy). An adequate baseline bone marrow function was required, which was defined as a granulocyte count ≧2,000 cells/cmm and a platelet count ≧100,000 cells/cmm. Adequate hepatic and renal functions were required with normal hepatic function defined as total billirubin ≦1.5 times upper normal value and normal renal function defined as serum creatinine ≦1.5 times upper normal value. Patients with abdominal adenocarcinoma, a previous history of a trial or ventricular arrhythmias, congestive heart failure, myocardial infarction within six months preceding randomization, complete bowel obtruction, a pre-existing neuropathy <WHO grade 2, active infection, prior allergic reaction to drugs containing Cremaphor, or other serious medical condition were excluded from this study.
# Eligible patients were randomized according to a computerized randomization log. During therapy, hematology data (hemoglobin, white blood cell count, granulocytes and platelets) were collected, and toxicity assessments were continuously made. After each cycle, a physical history update was recorded, as well as tumor measurement, performance status (ECOG), hematology, chemistry (serum creatinine, billirubin, alkaline phosphatase, (SLOT (AST), CA125) and a toxicity assessment. A quality of life assessment was also made after each cycle, and every two months until six months after treatment stopped.
# [4] = in vivo
# Procedure: Patients with platinum pretreated recurrent ovarian cancer were randomized to a 135 or 175 mg/m^2 dose arm, administered as a 3-hour or 24-hour IV infusion, which was repeated every three weeks. Responses were evaluated every two cycles. All four treatment groups were matched for age, performance status, previous treatments, and time from last platinum therapy.
# All rechallenge patients received a prolonged 24-hour infusion, even if the hypersensitivity reaction occurred during a 3-hour infusion. Dosage reductions in subsequent treatment courses were mandated for all patients having (1) a granulocyte count of less than 500 cells/cmm, (2) a platelet count of less than 50,000 cells/cmm for seven days or more, (3) febrile neutropenia, (4) infection, (5) hemmorage, (6) mucositis with vesiculation and/or ulcers, or (7) vomiting appearing despite anti-emitic premedication.
# [5] = TOTAL, all four arms, 528 courses analyzed
# [6] = arm 135/3 (mg/m^2/infusion hours), 132 courses analyzed
# [7] = arm 135/24 (mg/m^2/infusion hours), 141 courses analyzed
# [8] = arm 175/3 (mg/m^2/infusion hours), 92 courses analyzed
# [9] = arm 175/4 (mg/m^2/infusion hours), 163 courses analyzed
compound,measurement,setting,value
CC(=O)O[C@H]1C(=O)[C@@]2(C)[C@H]([C@H](OC(=O)c3ccccc3)[C@]3(O)C[C@H](OC(=O)[C@H](O)[C@@H](NC(=O)c4ccccc4)c4ccccc4)C(C)=C1C3(C)C)[C@]1(OC(C)=O)CO[C@@H]1C[C@@H]2O [taxol],activity against drug-refractory ovarian cancer,[1],active agent
same,hypersensitivity reactions which required acute therapeutic intervention,[2]; 2 of 157 patients,1%
same,severe hypersensitivity reaction in one patient,"[2]; 24-hour arm, course 2 at dose reduced by 20%, less than 1 ml infused",tachychardia and shortness of breath
same,patients exhibiting some type of hypersensitivity reaction,"[2]; 57/157, all arms",35%
same,Patients reporting a HSR,"[2]; TOTAL, all four arms, 157 patients analyzed",57 (36) n (%)
same,Courses with a reported HSR,[2]; [5],136 (26) n (%)
same,Type of HSR Per Course: Arrhytheria,[2]; [5],1 n (%)
same,Type of HSR Per Course: Chest pain,[2]; [5],1 n (%)
same,Type of HSR Per Course: Dyspriea,[2]; [5],5 n (%)
same,Type of HSR Per Course: Ederma face,[2]; [5],2 n (%)
same,Type of HSR Per Course: Eye disorder,[2]; [5],2 n (%)
same,Type of HSR Per Course: Flushing,[2]; [5],103 n (%)
same,Type of HSR Per Course: Headache,[2]; [5],1 n (%)
same,Type of HSR Per Course: Hypertension,[2]; [5],1 n (%)
same,Type of HSR Per Course: Hypotension,[2]; [5],13 n (%)
same,Type of HSR Per Course: Nausea/Vomiting,[2]; [5],1 n (%)
same,Type of HSR Per Course: Pruritis,[2]; [5],2 n (%)
same,Type of HSR Per Course: Rash,[2]; [5],21 n (%)
same,Type of HSR Per Course: Tachychardia,[2]; [5],1 n (%)
same,Patients reporting a HSR,"[2]; arm 135/3 (mg/m^2/infusion hours), 39 patients analyzed",11 (28) n (%)
same,Courses with a reported HSR,[2]; [6],23 (17) n (%)
same,Type of HSR Per Course: Dyspriea,[2]; [6],2 n (%)
same,Type of HSR Per Course: Eye disorder,[2]; [6],2 n (%)
same,Type of HSR Per Course: Flushing,[2]; [6],15 n (%)
same,Type of HSR Per Course: Hypotension,[2]; [6],1 n (%)
same,Type of HSR Per Course: Pruritis,[2]; [6],2 n (%)
same,Type of HSR Per Course: Rash,[2]; [6],6 n (%)
same,Patients reporting a HSR,"[2]; arm 135/24 (mg/m^2/infusion hours), 44 patients analyzed",18 (41) n (%)
same,Courses with a reported HSR,[2]; [7],44 (31) n (%)
same,Type of HSR Per Course: Chest pain,[2]; [7],1 n (%)
same,Type of HSR Per Course: Dyspriea,[2]; [7],3 n (%)
same,Type of HSR Per Course: Flushing,[2]; [7],40 n (%)
same,Type of HSR Per Course: Headache,[2]; [7],1 n (%)
same,Type of HSR Per Course: Hypotension,[2]; [7],1 n (%)
same,Type of HSR Per Course: Nausea/Vomiting,[2]; [7],1 n (%)
same,Type of HSR Per Course: Rash,[2]; [7],6 n (%)
same,Type of HSR Per Course: Tachychardia,[2]; [7],1 n (%)
same,Patients reporting a HSR,"[2]; arm 175/3 (mg/m^2/infusion hours), 29 patients analyzed",12 (41) n (%)
same,Courses with a reported HSR,[2]; [8],23 (25) n (%)
same,Type of HSR Per Course: Ederma face,[2]; [8],1 n (%)
same,Type of HSR Per Course: Flushing,[2]; [8],16 n (%)
same,Type of HSR Per Course: Hypotension,[2]; [8],1 n (%)
same,Type of HSR Per Course: Rash,[2]; [8],6 n (%)
same,Patients reporting a HSR,"[2]; arm 175/4 (mg/m^2/infusion hours), 45 patients analyzed",6 (36) n (%)
same,Courses with a reported HSR,[2]; [9],46 (28) n (%)
same,Type of HSR Per Course: Arrhytheria,[2]; [9],1 n (%)
same,Type of HSR Per Course: Ederma face,[2]; [9],1 n (%)
same,Type of HSR Per Course: Flushing,[2]; [9],32 n (%)
same,Type of HSR Per Course: Hypertension,[2]; [9],1 n (%)
same,Type of HSR Per Course: Hypotension,[2]; [9],10 n (%)
same,Type of HSR Per Course: Rash,[2]; [9],3 n (%)
same,"stabilization of disease, patients with an early relapse after platinum",[3],53%
same,response to taxol in patients who had progressed on previous platinum containing chemotherapy,[3]; 3 out of 46,7%
same,response to taxol in patients considered resistant to platinum therapy,"[3]; 14/114, progression on therapy or relapse within six months",13%
same,"objective response rate, not evaluated and unevaluable patients excluded",[3]; 22/135 patients,16%
same,"stabilization of disease, patients with disease truly refractory to platinum",[3]; 24/46,52%
same,"response to taxol, platinum resistant patients with one previous regimen of platinum",[3]; in vivo,15%
same,"response to taxol, platinum resistant patients with two previous regimens of platinum",[3]; in vivo,10%
same,patients with stable disease continued on taxol,[3]; of 157 patients,51 patients
same,patients who required a dose reduction,"[4]; female, human, 9 weeks",17%
same,"dose reduction required, long term infusion arms versus short term infusion arms",[4],more frequently
